{
  "source": "patent US20240417410A1",
  "about": "“TRICYCLIC COMPOUNDS FOR THE TREATMENT OF CANCER” (Hoffmann-La Roche Inc., priority 2023, published 2024)",
  "assay_in_all_cases": "Cell proliferation, CTG 3D, 7 d",
  "type_in_all_cases": "cell-based",
  "key": {"SUM 159PT": {"test_system": "SUM 159PT", "settings": "Homo sapiens, HRAS (p.G12D)", "summary_of_the_method": "(§1)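 Spheroids formed overnight in ultra-low-attachment plates are exposed for 7 days to a 9-dose, 3-fold compound series (0.2% DMSO). IC50 values derive from CTG 3D luminescence fits; for incomplete curves, values below the lowest or above the highest tested concentration are reported, or bottom fixed at 0%.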"}, "SNU-387": {"test_system": "SNU-387", "settings": "Homo sapiens", "summary_of_the_method": "as §1"}, "TOV-21G": {"test_system": "TOV-21G", "settings": "Homo sapiens, TOV21G", "summary_of_the_method": "as §1"}, "MOLP8": {"test_system": "MOLP8", "settings": "Homo sapiens, MOLP-8", "summary_of_the_method": "as §1"}, "KU1919": {"test_system": "KU1919", "settings": "Homo sapiens, KU-19-19", "summary_of_the_method": "as §1"}, "SW620": {"test_system": "SW620", "settings": "Homo sapiens, SW-620; SW620, KRAS (G12V)", "summary_of_the_method": "as §1"}, "AML-193": {"test_system": "AML-193", "settings": "Homo sapiens", "summary_of_the_method": "as §1"}, "SW 1990": {"test_system": "SW 1990", "settings": "Homo sapiens, SW1990; SW 1990, KRAS (G12D)", "summary_of_the_method": "as §1"}, "HCT-8": {"test_system": "HCT-8", "settings": "Homo sapiens", "summary_of_the_method": "as §1"}, "SK-CO-1": {"test_system": "SK-CO-1", "settings": "Homo sapiens; SK-CO-1, KRAS (G12V)", "summary_of_the_method": "as §1"}, "SW1271": {"test_system": "SW1271", "settings": "Homo sapiens", "summary_of_the_method": "as §1"}, "THP-1": {"test_system": "THP-1", "settings": "Homo sapiens; THP-1, NRAS (p.G12D)", "summary_of_the_method": "as §1"}, "T24": {"test_system": "T24", "settings": "Homo sapiens, T-24; T24, HRAS (p.G12V)", "summary_of_the_method": "as §1"}, "KURAMOCHI": {"test_system": "KURAMOCHI", "settings": "Homo sapiens, KRAS (WT ampl)", "summary_of_the_method": "as §1"}, "SW 1088": {"test_system": "SW 1088", "settings": "Homo sapiens, SW1088", "summary_of_the_method": "as §1"}, "NCI-H2444": {"test_system": "NCI-H2444", "settings": "Homo sapiens; NCI-H2444, KRAS (G12V)", "summary_of_the_method": "as §1"}, "SK-N-AS": {"test_system": "SK-N-AS", "settings": "Homo sapiens", "summary_of_the_method": "as §1"}, "RKN": {"test_system": "RKN", "settings": "Homo sapiens, KRAS (G12V)", "summary_of_the_method": "as §1"}, "Calu-6": {"test_system": "Calu-6", "settings": "Homo sapiens", "summary_of_the_method": "as §1"}, "HepG2": {"test_system": "HepG2", "settings": "Homo sapiens", "summary_of_the_method": "as §1"}, "ONS-76": {"test_system": "ONS-76", "settings": "Homo sapiens", "summary_of_the_method": "as §1"}, "CHL1": {"test_system": "CHL1", "settings": "Homo sapiens, CHL-1; CHL1, KRAS (WT ampl)", "summary_of_the_method": "as §1"}, "COR-L23": {"test_system": "COR-L23", "settings": "Homo sapiens; COR-L23, KRAS (G12V)", "summary_of_the_method": "as §1"}, "NCI-H1944": {"test_system": "NCI-H1944", "settings": "Homo sapiens", "summary_of_the_method": "as §1"}, "LS1034": {"test_system": "LS1034", "settings": "Homo sapiens, LS-1034", "summary_of_the_method": "as §1"}, "GAK": {"test_system": "GAK", "settings": "Homo sapiens", "summary_of_the_method": "as §1"}, "NCI-H1355": {"test_system": "NCI-H1355", "settings": "Homo sapiens", "summary_of_the_method": "as §1"}},
  "note": "Read-outs that look alike come from different tables or passages of the source.",
  "data": [
    {"smiles": "CCn1c(-c2cc(N3CCN(C)CC3)cnc2[C@H](C)OC)c2c3cc(ccc31)-c1csc(n1)C[C@H](NC(=O)[C@H]1C[C@@H]1C)C(=O)N1CCC[C@H](N1)C(=O)OCC(C)(C)O2", "note": "[Example A122, reference compound]", "values": [
      {"measurement": "IC50", "setting": "SUM 159PT", "value": 3, "unit": "nM"},
      {"measurement": "IC50", "setting": "SNU-387; SNU-387", "value": 1.1, "unit": "nM"},
      {"measurement": "IC50", "setting": "TOV-21G", "value": 33, "unit": "nM"},
      {"measurement": "IC50", "setting": "MOLP8", "value": 22, "unit": "nM"},
      {"measurement": "IC50", "setting": "KU1919", "value": 2.8, "unit": "nM"},
      {"measurement": "IC50", "setting": "SW620", "value": 0.23, "unit": "nM"},
      {"measurement": "IC50", "setting": "AML-193", "value": 2.1, "unit": "nM"},
      {"measurement": "IC50", "setting": "SW 1990", "value": 1.5, "unit": "nM"},
      {"measurement": "IC50", "setting": "HCT-8; HCT-8", "value": 69, "unit": "nM"},
      {"measurement": "IC50", "setting": "SK-CO-1", "value": 0.33, "unit": "nM"},
      {"measurement": "IC50", "setting": "SW1271; SW1271", "value": 3, "unit": "nM"},
      {"measurement": "IC50", "setting": "THP-1", "value": 0.18, "unit": "nM"},
      {"measurement": "IC50", "setting": "T24", "value": 0.57, "unit": "nM"},
      {"measurement": "IC50", "setting": "KURAMOCHI", "value": 100, "unit": "nM"},
      {"measurement": "IC50", "setting": "SW 1088", "value": 2.6, "unit": "nM"},
      {"measurement": "IC50", "setting": "NCI-H2444", "value": 0.29, "unit": "nM"},
      {"measurement": "IC50", "setting": "SK-N-AS", "value": 1.9, "unit": "nM"},
      {"measurement": "IC50", "setting": "RKN", "value": 0.066, "unit": "nM"},
      {"measurement": "IC50", "setting": "Calu-6; Calu-6", "value": 1.3, "unit": "nM"},
      {"measurement": "IC50", "setting": "HepG2; HepG2", "value": 5.5, "unit": "nM"},
      {"measurement": "IC50", "setting": "ONS-76; ONS-76", "value": 2.1, "unit": "nM"},
      {"measurement": "IC50", "setting": "CHL1", "value": 9.3, "unit": "nM"},
      {"measurement": "IC50", "setting": "COR-L23", "value": 0.78, "unit": "nM"},
      {"measurement": "IC50", "setting": "NCI-H1944; NCI-H1944", "value": 1.7, "unit": "nM"},
      {"measurement": "IC50", "setting": "LS1034", "value": 7.3, "unit": "nM"},
      {"measurement": "IC50", "setting": "GAK", "value": 19, "unit": "nM"},
      {"measurement": "IC50", "setting": "NCI-H1355; NCI-H1355", "value": 33, "unit": "nM"}
    ]},
    {"smiles": "CO[C@@H](C)c1ncc(N2CCN(C)CC2)cc1-c1c2c3cc(cc4c3n1CCC4)-c1csc(n1)C[C@H](NC(=O)[C@H]1[C@H](C)[C@@H]1C)C(=O)N1CCC[C@H](N1)C(=O)OCC(C)(C)C2", "note": "(atropisomer, axis not shown; (M)) [Example 24, (1r,2R,3S)-N-[(7S,13S)-(20M)-20-[2-[(1S)-1-methoxyethyl]-5-(4-methylpiperazin-1-yl)-3-pyridyl]-17,17-dimethyl-8,14-dioxo-15-oxa-4-thia-9,21,30,31-tetrazahexacyclo[23.3.1.1^2,5.1^9,13.0^19,27.0^21,26]hentriaconta-1 (28),2,5 (31), 19,25 (29),26-hexaen-7-yl]-2,3-dimethyl-cyclopropanecarboxamide]", "values": [
      {"measurement": "IC50", "setting": "SUM 159PT", "value": 4.5, "unit": "nM"},
      {"measurement": "IC50", "setting": "SNU-387; SNU-387, NRAS (p.Q61K), read-out: IC50", "value": 0.43, "unit": "nM"},
      {"measurement": "IC50", "setting": "TOV-21G; TOV-21G, KRAS (G13C), read-out: IC50", "value": 4.9, "unit": "nM"},
      {"measurement": "IC50", "setting": "MOLP8; MOLP8, NRAS (p.Q61L), read-out: IC50", "value": 11, "unit": "nM"},
      {"measurement": "IC50", "setting": "KU1919; KU1919, NRAS (p.Q61R), read-out: IC50", "value": 2.2, "unit": "nM"},
      {"measurement": "IC50", "setting": "SW620", "value": 0.1, "unit": "nM"},
      {"measurement": "IC50", "setting": "AML-193; AML-193, NRAS (p.G13V), read-out: IC50", "value": 1.1, "unit": "nM"},
      {"measurement": "IC50", "setting": "SW 1990", "value": 1.6, "unit": "nM"},
      {"measurement": "IC50", "setting": "HCT-8; HCT-8, KRAS (G13D), read-out: IC50", "value": 80, "unit": "nM"},
      {"measurement": "IC50", "setting": "SK-CO-1", "value": 0.18, "unit": "nM"},
      {"measurement": "IC50", "setting": "SW1271; SW1271, NRAS (p.Q61R), read-out: IC50", "value": 1.7, "unit": "nM"},
      {"measurement": "IC50", "setting": "THP-1", "value": 0.26, "unit": "nM"},
      {"measurement": "IC50", "setting": "T24", "value": 0.3, "unit": "nM"},
      {"measurement": "IC50", "setting": "KURAMOCHI", "value": 100, "unit": "nM"},
      {"measurement": "IC50", "setting": "SW 1088; SW 1088, NRAS (p.Q61K), read-out: IC50", "value": 0.75, "unit": "nM"},
      {"measurement": "IC50", "setting": "NCI-H2444", "value": 0.17, "unit": "nM"},
      {"measurement": "IC50", "setting": "SK-N-AS; NRAS (p.Q61K), read-out: IC50", "value": 0.47, "unit": "nM"},
      {"measurement": "IC50", "setting": "RKN", "value": 0.045, "unit": "nM"},
      {"measurement": "IC50", "setting": "Calu-6; Calu-6, KRAS (Q61K), read-out: IC50", "value": 0.65, "unit": "nM"},
      {"measurement": "IC50", "setting": "HepG2; HepG2, NRAS (p.Q61L), read-out: IC50", "value": 2.1, "unit": "nM"},
      {"measurement": "IC50", "setting": "ONS-76; ONS-76, NRAS (p.Q61R), read-out: IC50", "value": 0.9, "unit": "nM"},
      {"measurement": "IC50", "setting": "CHL1", "value": 8.1, "unit": "nM"},
      {"measurement": "IC50", "setting": "COR-L23", "value": 0.53, "unit": "nM"},
      {"measurement": "IC50", "setting": "NCI-H1944; NCI-H1944, KRAS (G13D), read-out: IC50", "value": 1.6, "unit": "nM"},
      {"measurement": "IC50", "setting": "LS1034; LS1034, KRAS (A146T), read-out: IC50", "value": 12, "unit": "nM"},
      {"measurement": "IC50", "setting": "GAK; GAK, NRAS (p.Q61L), read-out: IC50", "value": 10, "unit": "nM"},
      {"measurement": "IC50", "setting": "NCI-H1355; NCI-H1355, KRAS (G13C), read-out: IC50", "value": 22, "unit": "nM"}
    ]}
  ]
}
